Like-named read-outs stand apart in the source and are kept apart here. Blank lines part the entries; values can stand above or below the compound they belong to.
How the values were obtained:
[1] = system: SW-480 colon adenocarcinoma cells; experiment: Apoptosis, DNA fragmentation (Cell Death Detection ELISA plus); format: cell-based, human; settings: for EC50: SW-480, by data analysis software or estimated from effective concentration range
Protocol: (§1) Apoptosis was also measured based on the amount of fragmented DNA contained in cell lysates. Briefly, SW-480 colon adenocarcinoma cells were plated in 96-well microtitre plates ("MTP") at a density of 10K cells/well in 180 μl and were incubated for 24 hrs. Cells were then treated with 20 μl aliquots of appropriately diluted compound, and allowed to incubate for an additional 48 hrs.
After the incubation, samples were prepared according to the following steps. The MTP was centrifuged (15 min., 1000 rpm) and the supernatant was carefully removed by fast inversion of the MTP. The cell pellets in each well were resuspended in 200 μl lysis buffer and incubated for 45 min. at room temperature to lyse the cells. The lysates were then centrifuged (15 min., 1000 rpm) and 20 μl aliquots of the supernatant (=cytoplasmicfraction) were transferred into the streptavidin-coated MTP for analysis. Care was taken not to shake the lysed pellets in the MTP (=cell nucleii containing high molecular weight, unfragmented DNA). Samples were analyzed immediately, because storage at 4° C. or -20° C. reduces the ELISA-signals.
Samples were then processed according to a DNA fragmentation assay protocol, and dose-response curves were generated based on optical density readings. Quantification of DNA was done by a commercially available photometric enzyme-immunoassay manufactured by Mannheim-Boehringer under the name "Cell Death Detection ELISA ^plus ". The assay is based on a quantitative sandwich-enzyme-immunoassay-principle using mouse monoclonal antibodies directed against DNA and histones, respectively. This allows the specific determination of mono and oligonucleosomes in the cytoplasmatic fraction of cell lysates. In brief, the assay procedure is as follows. The sample (cell-lysate, serum, culture-supematant etc.) is placed into a streptavidin-coated MTP. Subsequently, a mixture of anti-histone-biotin and anti-DNA-POD is followed by incubation for 2 hours. During the incubation period, the anti-histone antibody binds to the histone-component of the nucleosomes and simultaneously fixes the immunocomplex to the streptavidin-coated MTP via its biotinylation. Additionally, the anti-DNA-POD antibody reacts with the DNA component of the nucleosomes. After removal of unbound antibodies by washing, the amount of nucleosomes is quantified by the POD retained in the immunocomplex. POD is determined photometrically with ABTS® (2,2'-Azino-di[3-ethylbenzthiazolin-sulfonate]) as substrate.
Fold stimulation (FS=ODmax/ODveh), an indicator of apoptotic response, was determined for each compound tested. EC50 values were determined either specifically by data analysis software, or by estimates based on the effective concentration range of each compound (ECR=min. effective dose-min. dose to peak effect). These FS and EC50 values for the tested compounds are listed above in Table 3.
(§2) In addition, using the DNA fragmentation test above, dose responses for the compounds of Example 8 and 9 were obtained.
Based on the data obtained from the DNA fragmentation tests in Tables 4 and 5, fold stimulations values for those compounds are also calculated at 100 μM by dividing the optical densities obtained at 100 μM by the optical densities of the control. Based on the data in Tables 4 and 5, fold stimulation values of 3.9 and 2.1 for the compounds of Examples 8 and 9 are obtained, accordingly.

[2] = biological target: T1, purified cyclooxygenase Type I (COX-I) (Ovis aries, UniProt P05979); experiment: Cyclooxygenase Type I (COX-I) inhibition; format: biochemical, ram; settings: arachidonic acid 100 μM, 2.0 min at 37° C.
T1 construct: The COX-I was purified from ram seminal vesicles; from tissue; host or cells: ram seminal vesicles
T1 sequence (P05979 25-600): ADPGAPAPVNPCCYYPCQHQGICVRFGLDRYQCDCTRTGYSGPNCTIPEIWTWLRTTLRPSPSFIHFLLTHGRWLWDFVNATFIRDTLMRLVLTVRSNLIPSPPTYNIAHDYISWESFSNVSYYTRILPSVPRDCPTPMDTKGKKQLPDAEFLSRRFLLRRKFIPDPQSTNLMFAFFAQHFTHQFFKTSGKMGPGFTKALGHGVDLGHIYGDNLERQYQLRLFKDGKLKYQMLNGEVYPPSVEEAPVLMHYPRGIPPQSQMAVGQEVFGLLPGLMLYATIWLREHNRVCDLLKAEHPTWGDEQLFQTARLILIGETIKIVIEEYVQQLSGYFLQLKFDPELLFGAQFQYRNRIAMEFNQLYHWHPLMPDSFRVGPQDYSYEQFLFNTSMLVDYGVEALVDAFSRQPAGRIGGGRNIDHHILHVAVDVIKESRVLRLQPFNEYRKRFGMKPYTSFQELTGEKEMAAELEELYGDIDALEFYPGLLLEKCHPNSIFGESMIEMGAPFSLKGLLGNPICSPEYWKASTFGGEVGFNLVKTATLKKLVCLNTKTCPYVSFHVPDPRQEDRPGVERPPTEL
Protocol: COX-I catalyzes the formation of prostaglandins and thromboxane by the oxidative metabolism of arachidonic acid.
Briefly, purified COX-I was incubated with arachidonic acid (100 μM) for 2.0 min at 37° C. in the presence or absence of test compounds. The assay was terminated by the addition of TCA, and COX-I activity was determined by absorbance at 530 nm.

[3] = system: human colon carcinoma cell line, SW-480; experiment: Growth inhibition, Sulforhodamine B (SRB) protein binding assay; format: cell-based; settings: for inhibition at 100 µM: SW480, 144 h, SW-480, six days
Protocol: The compounds of Examples #1, #8, and #9 were assayed for their growth inhibitory activity on the human colon carcinoma cell line, SW-480 obtained from ATCC (Rockville, Md.), to ascertain the degree of growth inhibition. Growth inhibition of this cell line is indicative of a benefit on precancerous lesions and neoplasms. The cell line and growth assay employed for such experiments are well characterized, and are used to evaluate the anti-neoplastic properties of compounds. The assay is used by the United States National Cancer Institute in its screening program for new anti-cancer drugs.
Drug stock solutions were made in 100% DMSO and were then diluted with RPMI media for cell culture testing. All drug solutions were prepared fresh on the day of testing. The cultured cells were obtained at passage #99 and grown in RPMI media supplemented with 5% fetal calf serum, and 2 mM glutamine, 100 U/ml penicillin, […] streptomycin, and 0.25 μg/ml amphotericin. The cultures were maintained in a humidified atmosphere of 95% air and 5% CO2 at 37° C. The cultures were passaged at preconfluent densities using a solution of 0.05% trypsin and 0.53 mM EDTA. Cells were plated at 1000 cells/well for 96 well flat-bottom microtiter plates.
Tumor cell growth inhibition was assessed using the Sulforhodamine B (SRB) protein binding assay. […] For each plate, 6 wells were designated as no treatment controls, six wells as vehicle (0.1% DMSO) controls, and the remaining wells for drug dilutions with three wells per drug. At the end of the exposure period, the cells were fixed and stained with sulforhodamine B, a protein binding dye. The dye was then solubilized, and the optical density of the resulting solution was determined on a 96-well plate reader. The mean dye intensity of the treated wells was then divided by the mean dye intensity in the control wells (6 wells of each) to determine the effect of the drug on the cells. Dye intensity is proportional to the number of cells or amount of protein per well. The resultant "percent inhibition" value then represents the degree of growth inhibition caused by the drug.
In addition, a dose response for growth inhibition was determined for the compound of Example 9, and an IC50 value was determined. This value is equivalent to the concentration of drug needed to inhibit tumor cell growth by 50%. […] Each experiment included at least three wells per drug concentration. Concentration was plotted on a log scale on the X-axis.

[4] = system: SW-480 colon adenocarcinoma cells; experiment: Growth (% vehicle) in dose response of the DNA fragmentation test; format: cell-based; settings: Homo sapiens, SW480, 48 h
Protocol: as §1, §2

[5] = system: HT-29 human colon carcinoma cells; experiment: Apoptosis, morphology of apoptotic cells by fluorescent microscopy (acridine orange / ethidium bromide); format: cell-based
Protocol: Apoptosis was measured using an assay of cell death based on morphological characteristics of apoptotic cells (i.e., condensed chromatin). Drug preparation and cell culture conditions were the same as for the SRB assay described above, except that HT-29 human colon carcinoma cells were used. Confluent cultures were established in 12.5 cm^2 flasks by plating 0.5×10^6 cells/flask. The cultures were assayed for apoptosis by fluorescent microscopy following labeling with acridine orange and ethidium bromide. Floating and attached cells were collected by trypsinization and washed three times in PBS. One ml aliquots were centrifuged (3 g). The pellet was resuspended in 25 μl media and 1 μl of a dye mixture containing 100 μg/ml acridine orange and 100 μg/ml ethidium bromide prepared in PBS and mixed gently. Ten μl of the mixture were placed on a microscope slide and covered with a 22 mm^2 coverslip, which was examined with 40× dry objectives under epillumination by filter combination.
An observer blinded in regard to the identity of the samples scored at least 100 cells per sample. Apoptotic cells were identified by nuclear condensation of chromatin stained by the acridine orange or ethidium bromide.

[6] = system: colonic polyps; settings: cited from earlier work
[7] = Homo sapiens, SW480, 100 μM, FS=ODmax/ODveh, fold stimulation, SW-480, 48 hrs, read-out: DNA Fragmentation FS (100 μM)
[8] = Homo sapiens, SW480, 48 h, 100 μM, OD at 100 μM divided by OD of control, read-out: fold stimulation calculated at 100 μM from Tables 4 and 5

- inhibition at 100 µM [2]: 70%
SMILES: CSc1ccc(/C=C2/C(C)=C(CCO)c3cc(F)ccc32)cc1 [Example 1, (Z)-5-Fluoro-2-Methyl-1-(4-Methylthio-Benzylidene)-1H-3-Indenyl-(2-Hydroxy)Ethane]
- fold induction at 100 µM [1, 7]: 4.9
- inhibition at 100 µM [3]: 71%

SMILES: COc1cc(/C=C2/C(C)=C(CCO)c3cc(F)ccc32)cc(OC)c1OC [Example 8, (Z)-5-Fluoro-2-Methyl-1-(3,4,5-Trimethoxybenzylidene)-1H-3-Indenyl-(2-Hydroxy)Ethane]
- Apoptosis Level (Mean OD Value ± SD) ([1]; 0.001 μM): 0.252 ± 0.017 OD
- Apoptosis Level (Mean OD Value ± SD) ([1]; 0.01 μM): 0.272 ± 0.013 OD
- Apoptosis Level (Mean OD Value ± SD) ([1]; 0.1 μM): 0.277 ± 0.044 OD
- Apoptosis Level (Mean OD Value ± SD) ([1]; 1 μM): 0.304 ± 0.044 OD
- Apoptosis Level (Mean OD Value ± SD) ([1]; 10 μM): 0.355 ± 0.049 OD
- Apoptosis Level (Mean OD Value ± SD) ([1]; 100 μM): 0.974 ± 0.124 OD
- Apoptosis Level (Mean OD Value ± SD) ([1]; 500 μM): 0.76 ± 0.113 OD
- fold induction at 100 µM [1, 8]: 3.9
- fold induction at 100 µM [1, 7]: 5.4
- EC50 ([1]; Homo sapiens, SW480): 20 µM
- activity at 0.001 µM ([4]; 0.001 μM): 101 ± 4.6%
- activity at 0.01 µM [4]: 109 ± 9.2%
- activity at 0.1 µM [4]: 105 ± 5.5%
- activity at 1 µM [4]: 103 ± 6.6%
- activity at 10 µM [4]: 24 ± 16%
- activity at 100 µM [4]: 5 ± 0.6%
- activity at 500 µM ([4]; 500 μM): 9 ± 3.4%
- inhibition at 100 µM [3]: 93%

- inhibition at 100 µM [2]: < 25%
- IC50 ([3]; SW480, SW-480, obtained graphically from dose response): 29.2 µM
SMILES: CC1=C(CCO)c2cc(F)ccc2/C1=C\c1ccc(S(C)(=O)=O)cc1 [Example 9, (Z)-5-Fluoro-2-Methyl-1-(4-Methylsulfonylbenzylidene)-1H-3-Indenyl-(2-Hydroxy)Ethane]
- Apoptosis Level (Mean OD Value ± SD) ([1]; 0.01 μM): 0.272 ± 0.033 OD
- Apoptosis Level (Mean OD Value ± SD) ([1]; 0.05 μM): 0.285 ± 0.03 OD
- Apoptosis Level (Mean OD Value ± SD) ([1]; 0.1 μM): 0.312 ± 0.05 OD
- Apoptosis Level (Mean OD Value ± SD) ([1]; 0.5 μM): 0.258 ± 0.03 OD
- Apoptosis Level (Mean OD Value ± SD) ([1]; 1 μM): 0.296 ± 0.052 OD
- Apoptosis Level (Mean OD Value ± SD) ([1]; 5 μM): 0.239 ± 0.024 OD
- Apoptosis Level (Mean OD Value ± SD) ([1]; 10 μM): 0.261 ± 0.022 OD
- Apoptosis Level (Mean OD Value ± SD) ([1]; 50 μM): 0.259 ± 0.068 OD
- Apoptosis Level (Mean OD Value ± SD) ([1]; 100 μM): 0.742 ± 0.095 OD
- fold induction at 100 µM [1, 8]: 2.1
- fold induction at 100 µM [1, 7]: 6.5
- EC50 ([1]; Homo sapiens, SW480): 89.3 µM
- activity at 0.01 µM [4]: 107 ± 7.4%
- activity at 0.05 µM ([4]; 0.05 μM): 108 ± 9.6%
- activity at 0.1 µM [4]: 111 ± 16.7%
- activity at 0.5 µM ([4]; 0.5 μM): 114 ± 18.1%
- activity at 1 µM [4]: 106 ± 6.3%
- activity at 5 µM ([4]; 5 μM): 100 ± 8.3%
- activity at 10 µM [4]: 103 ± 9.3%
- activity at 50 µM ([4]; 50 μM): 35 ± 0.246%
- activity at 100 µM [4]: 21 ± 0.65%
- inhibition at 100 µM [3]: 84%
- Morphology % Apoptotic Cells 100 μM ([5]; 100 μM): 98%

SMILES: CC1=C(CC(=O)O)c2cc(F)ccc2/C1=C\c1ccc(S(C)(=O)=O)cc1 [Exisulind, reference compound]
- fold induction at 700 µM ([1]; Homo sapiens, SW480, 700 μM, FS=ODmax/ODveh, fold stimulation, SW-480, 48 hrs): 3.4
- EC50 ([1]; Homo sapiens, SW480): 425 µM
- Morphology % Apoptotic Cells (@540 μM) ([5]; 540 μM): 48%

SMILES: CC1=C(CC(=O)O)c2cc(F)ccc2/C1=C\c1ccc([S+](C)[O-])cc1 (stereo not drawn) [sulindac]
- gastric side effects ([6]; chronic administration, high cancer-risk patients): causes gastric side effects in many such patients
- effect on colonic polyps ([6]; patients): Polyps virtually disappear
